Experimental data as given in US9232796B2, “Herbicidal compositions comprising 4-amino-3-chloro-5-fluoro-6-(4-chloro-2-fluoro-3-methoxyphenyl) pyridine-2-carboxylic acid or a derivative thereof and acetyl-CoA carboxylase (ACCase) inhibitors” (DOW AGROSCIENCES LLC, priority 2012, dated 2016).

Legend:
CYPIR = assay: Example V (second) postemergence foliar-applied ternary mixtures, greenhouse, direct seeded rice weeds; type: in vivo, Cyperus iria L.
Description: (§1) The treated plants and control plants were placed in a greenhouse as described above and watered by sub-irrigation to prevent wash-off of the test compounds. After approximately 3 weeks, the condition of the test plants as compared with that of the untreated plants was determined visually and scored on a scale of 0 to 100 percent where 0 corresponds to no injury or growth inhibition and 100 corresponds to complete kill.
(§2) Colby's equation was used to determine the herbicidal effects expected from the mixtures (Colby, S. R. 1967. Calculation of the synergistic and antagonistic response of herbicide combinations. Weeds 15:20-22.).
(§3) The following equation was used to calculate the expected activity of mixtures containing three active ingredients, A, B, and C: Expected=A+B+C−((A×B+A×C+B×C)/100)+(A×B×C/10000)

IPOHE = assay: as above; type: in vivo, Ipomoea hederacea Jacq.; conditions: Penoxsulam 8.75 gai/ha
Description: (§4) All stock solutions and applications solutions were visually inspected for compound compatibility prior to application. Spray solutions were applied to the plant material with an overhead Mandel track sprayer equipped with a 8002E nozzles calibrated to deliver 187 L/ha over an application area of 0.503 m^2 at a spray height of 18 inches (46 cm) above average plant canopy height. Control plants were sprayed in the same manner with the solvent blank.
as §1, §2, §3

FIMMI = assay: Example VI in-water applied ternary mixtures, greenhouse, transplanted paddy rice weeds; type: in vivo, Fimbristylis miliacea (L.) Vahl
Description: (§5) Weed seeds or nutlets of the desired test plant species were planted in puddled soil (mud) prepared by mixing a shredded, non-sterilized mineral soil (50.5 percent silt, 25.5 percent clay, and 24 percent sand, with a pH of about 7.6 and an organic matter content of about 2.9 percent) and water at a 1:1 volumetric ratio. The prepared mud was dispensed in 365 mL aliquots into 16-ounce (oz.) non-perforated plastic pots with a surface area of 86.59 square centimeters (cm^2) leaving a headspace of 3 centimeters (cm) in each pot. Mud was allowed to dry overnight prior to planting or transplanting. Rice seeds were planted in Sun Gro MetroMix® 306 planting mixture, which typically has a pH of 6.0 to 6.8 and an organic matter content of about 30 percent, in plastic plug trays. Seedlings at the second or third leaf stage of growth were transplanted into 860 mL of mud contained in 32-oz. non-perforated plastic pots with a surface area of 86.59 cm^2 4 days prior to herbicide application. The paddy was created by filling the headspace of the pots with 2.5 to 3 cm of water. When required to ensure good germination and healthy plants, a fungicide treatment and/or other chemical or physical treatment was applied. The plants were grown for 4-22 days in a greenhouse with an approximate 14 hr. photoperiod which was maintained at about 29° C. during the day and 26° C. during the night. Nutrients were added as Osmocote® (19:6:12, N:P:K+minor nutrients) at 2 g per 16-oz. pot and 4 g per 32-oz. pot. Water was added on a regular basis to maintain the paddy flood, and supplemental lighting was provided with overhead metal halide 1000-Watt lamps as necessary. The plants were employed for testing when they reached the first through fourth true leaf stage.
(§6) Treatments consisted of the benzyl ester of 4-amino-3-chloro-5-fluoro-6-(4-chloro-2-fluoro-3-methoxy-phenyl)pyridine-2-carboxylic acid (Compound A), formulated as an SC (suspension concentrate), an ACCase inhibitor herbicide, and a third herbicidal component, each applied alone and in ternary combination. Forms of compound A were applied on an acid equivalent basis.
(§7) The ACCase inhibitor component was applied on an active ingredient basis and included cyhalofop-R-butyl formulated as Clincher® G and metamifop formulated as Metamifop EC. Other herbicidal components were applied on an active ingredient or acid equivalent basis depending on the compound and included penoxsulam formulated as Grasp® SC, bentazon sodium formulated as Basagran®, triclopyr […] (TEA) salt formulated as Grandstand® R, benzobicyclon formulated as Benzobicyclon, benfuresate formulated as Full Slot® WG, pyraclonil formulated as Pyraclon® Flowable, mefenacet (technical grade material), and pretilachlor (technical grade material).
(§8) Treatment requirements for each compound or herbicidal component were calculated based upon the rates being tested, the concentration of active ingredient or acid equivalent in the formulation, an application volume of 1 mL per component per pot, and an application area of 86.59 cm^2 per pot.
(§9) For formulated compounds, a measured amount was placed in an individual 100 or 200 mL glass vial and was dissolved in a volume of 1.25% (v/v) Agri-Dex® crop oil concentrate to obtain application solutions.
(§10) For technical grade compounds, a weighed amount was placed in an individual 100 to 200 mL glass vial and was dissolved in a volume of acetone to obtain concentrated stock solutions.
(§11) Applications were made by injecting with a pipetter appropriate amounts of the application solutions, into the aqueous layer of the paddy. Control plants were treated in the same manner with the solvent blank. Applications were made so that all treated plant material received the same concentrations of acetone and crop oil concentrate.
(§12) The treated plants and control plants were placed in a greenhouse as described above and water was added as needed to maintain a paddy flood. […]

ECHOR [1] = assay: Example V (second) postemergence foliar-applied ternary mixtures, greenhouse, direct seeded rice weeds; type: in vivo, Echinochloa oryzoides (Ard.) Fritsch
Description: Seeds or nutlets of the desired test plant species were planted in a soil matrix prepared by mixing a sandy loam or loam soil (e.g., 32 percent silt, 23 percent clay, and 45 percent sand, with a pH of about 6.5 and an organic matter content of about 1.9 percent) and calcareous grit in an 80 to 20 ratio. The soil matrix was contained in plastic pots with a volume of 1 quart and a surface area of 83.6 square centimeters (cm^2). […] The plants were grown for 8-22 days in a greenhouse with an approximate 14 hr. photoperiod which was maintained at about 29° C. during the day and 26° C. during the night. Nutrients (Peters Excel® 15-5-15 5-Ca 2-Mg and iron chelate) were applied in the irrigation solution as needed and water was added on a regular basis. Supplemental lighting was provided with overhead metal halide 1000-Watt lamps as necessary. The plants were employed for testing when they reached the first through fourth true leaf stage.
(§13) Treatments consisted of the benzyl ester of 4-amino-3-chloro-5-fluoro-6-(4-chloro-2-fluoro-3-methoxy-phenyl)pyridine-2-carboxylic acid (Compound A), formulated as an SC (suspension concentrate), an ACCase inhibitor, and a third herbicidal component, each applied alone and in ternary combination. Forms of compound A were applied on an acid equivalent basis.
For treatments comprised of formulated compounds, measured amounts of compounds were placed individually in 25 mL glass vials and diluted in a volume of 1.25% (v/v) Agri-Dex® crop oil concentrate to obtain 12× stock solutions. […] Application solutions were prepared by adding an appropriate amount of each stock solution (e.g., 1 mL) and diluted to the appropriate final concentrations with the addition of 9 mL of an aqueous mixture of 1.25% (v/v) crop oil concentrate so that the final spray solutions contained 1.25% (v/v) crop oil concentrate.
As required, additional water and/or 97:3 v/v acetone/DMSO was added to individual application solutions so that the final acetone and DMSO concentrations of the application solutions being compared were 8.1% and 0.25%, respectively.
as §4, §1, §2, §3

SCPMA = assay: Example VI in-water applied ternary mixtures, greenhouse, transplanted paddy rice weeds; type: in vivo, Schoenoplectus maritimus (L.) Lye; conditions: 5 gai/ha
Description: as §11
The treated plants and control plants were placed in a greenhouse as described above and water was added as needed to maintain a paddy flood. After approximately 3 weeks the condition of the test plants as compared with that of the untreated plants was determined visually and scored on a scale of 0 to 100 percent where 0 corresponds to no injury or growth inhibition and 100 corresponds to complete kill.
as §2
The following equation was used to calculate the expected activity of mixtures containing three active ingredients, A. B, and C: Expected=A+B+C−((A×B+A×C+B×C)/100)+(A×B×C/10000)

ECHCG [2] = assay: as above; type: in vivo, Echinochloa crus-galli (L.) Beauv.
Procedure, shortened: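 Compound A (SC, acid-equivalent basis) alone or with cyhalofop-R-butyl or metamifop plus a third herbicide, injected into paddy water of greenhouse-grown transplanted rice and weeds at 1st–4th leaf stage (~29/26 °C). Visual injury scored 0–100% after ~3 weeks vs untreated; expected mixture effects by Colby's equation.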

ECHOR [3] = assay: as above; type: in vivo, Echinochloa oryzoides (Ard.) Fritsch
Description: as §5, §6, §7, §8, §9, §10, §11, §12

CYPRO = assay: as above; type: in vivo, Cyperus rotundus L.
Description: as §5, §6, §7, §8, §9, §10, §11, §12

SCPJU [4] = assay: as above; type: in vivo, Schoenoplectus juncoides (Roxb.) Palla; conditions: 17.5 gai/ha
Description: as §5, §6
The ACCase inhibitor component was applied on an active ingredient basis and included cyhalofop-R-butyl formulated as Clincher® G and metamifop formulated as Metamifop EC. […]
as §8
For formulated compounds, a measured amount was placed in an individual 100 or 200 mL glass vial and was dissolved in a volume of 1.25% (v/v) Agri-Dex® crop oil concentrate to obtain application solutions. […]

SCPJU [5] = assay: Example V (second) postemergence foliar-applied ternary mixtures, greenhouse, direct seeded rice weeds; type: in vivo, Schoenoplectus juncoides (Roxb.) Palla; conditions: 17.5 gae/ha
Description: Seeds or nutlets of the desired test plant species were planted in a soil matrix prepared by mixing a sandy loam or loam soil (e.g., 32 percent silt, 23 percent clay, and 45 percent sand, with a pH of about 6.5 and an organic matter content of about 1.9 percent) and calcareous grit in an 80 to 20 ratio. The soil matrix was contained in plastic pots with a volume of 1 quart and a surface area of 83.6 square centimeters (cm^2). When required to ensure good germination and healthy plants, a fungicide treatment and/or other chemical or physical treatment was applied. The plants were grown for 8-22 days in a greenhouse with an approximate 14 hr. photoperiod which was maintained at about 29° C. during the day and 26° C. during the night. Nutrients (Peters Excel® 15-5-15 5-Ca 2-Mg and iron chelate) were applied in the irrigation solution as needed and water was added on a regular basis. Supplemental lighting was provided with overhead metal halide 1000-Watt lamps as necessary. The plants were employed for testing when they reached the first through fourth true leaf stage.
as §13
The ACCase inhibitor component was applied on an active ingredient basis and included cyhalofop-R-butyl formulated as Clincher® SF, fenoxaprop-p-ethyl formulated as RiceStar® HT, and profoxydim formulated as Aura® 20EC. Other herbicidal components were applied on an active ingredient or acid equivalent basis depending on the compound and included penoxsulam formulated as Grasp® SC, bentazon sodium formulated as Basagran®, triclopyr […] (TEA) salt formulated as Grandstand® R, bispyribac sodium formulated as Regiment® 80WP, imazamox ammonium formulated as Beyond®, benzobicyclon, quinclorac formulated as Facet® 75DF, glyphosate dimethylammonium (DMA) salt formulated as Durango® DMA, glufosinate ammonium formulated as Ignite® 280, fentrazamide formulated as an emulsifiable concentrate (EC), propyrisulfuron formulated as Zeta One®, and indanofan (technical grade material).
Treatment requirements were calculated based upon the rates being tested, the concentration of active ingredient or acid equivalent in the formulation, and a 12 mL application volume at a rate of 187 L/ha.
For treatments comprised of formulated compounds, measured amounts of compounds were placed individually in 25 mL glass vials and diluted in a volume of 1.25% (v/v) Agri-Dex® crop oil concentrate to obtain 12× stock solutions. […]

ECHCO = assay: as above; type: in vivo, Echinochloa colona (L.) Link; conditions: 17.5 gae/ha
Description: as §1, §2, §3

ECHCG [6] = assay: as above; type: in vivo, Echinochloa crus-galli (L.) Beauv.; conditions: 17.5 gae/ha
Procedure, shortened: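 Compound A (SC, acid equivalent), an ACCase inhibitor and a third herbicide were sprayed alone and as ternary mixtures postemergence at 187 L/ha with 1.25% v/v crop oil concentrate on greenhouse plants at the 1st–4th true leaf stage (29/26 °C day/night, ~14 h photoperiod). Injury was scored visually at ~3 weeks (0–100%) against untreated plants, and Colby's equation gave the expected mixture effects.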

## COc1cnc(OC)n2nc(NS(=O)(=O)c3c(OCC(F)F)cccc3C(F)(F)F)nc12 [Penoxsulam]
CYPIR; 4.38 gai/ha
  Visual Weed Control (%) - 22 DAA CYPIR Obs: 50%
IPOHE
  Visual Weed Control (%) - 21 DAA IPOHE Obs: 48%
FIMMI; 1.25 gai/ha
  Visual Weed Control (%) - 21 DAA FIMMI Obs: 33%
FIMMI; 2.5 gai/ha
  Visual Weed Control (%) - 24 DAA FIMMI Obs: 60%
ECHOR [1]; 4.38 gai/ha
  Visual Weed Control (%) - 22 DAA ECHOR Obs: 45%
ECHOR [1]; 8.75 gai/ha
  Visual Weed Control (%) - 22 DAA ECHOR Obs: 53%
SCPMA
  Visual Weed Control (%) - 24 DAA SCPMA Obs: 30%
ECHCG [2]; 1.25 gai/ha, first sub-table
  Visual Weed Control (%) - 21 DAA ECHCG Obs: 17%
ECHCG [2]; 2.5 gai/ha, second sub-table
  Visual Weed Control (%) - 21 DAA ECHCG Obs: 55%
ECHOR [3]; Table 71, 5 gai/ha
  Visual Weed Control (%) - 24 DAA ECHOR Obs: 65%
ECHOR [3]; Table 71, 10 gai/ha
  Visual Weed Control (%) - 24 DAA ECHOR Obs: 93%
CYPRO; 1.25 gai/ha
  Visual Weed Control (%) - 21 DAA CYPRO Obs: 0%
CYPRO; 2.5 gai/ha
  Visual Weed Control (%) - 24 DAA CYPRO Obs: 0%
CYPRO; 5 gai/ha
  Visual Weed Control (%) - 24 DAA CYPRO Obs: 0%

## CCN(CC)CC.O=C(O)COc1nc(Cl)c(Cl)cc1Cl [Triclopyr TEA]
SCPJU [4]
  Visual Weed Control (%) - 21 DAA SCPJU Obs: 8%
ECHCG [2]; 17.5 gai/ha, first set
  Visual Weed Control (%) - 21 DAA ECHCG Obs: 0%
ECHCG [2]; 35 gai/ha, second set
  Visual Weed Control (%) - 21 DAA ECHCG Obs: 0%

## CCN(CC)CC.O=C(O)COc1nc(Cl)c(Cl)cc1Cl [Triclopyr TEA Salt]
CYPIR; 17.5 gae/ha
  Visual Weed Control (%) - 21 DAA CYPIR Obs: 0%
SCPJU [5]
  Visual Weed Control (%) - 21 DAA SCPJU Obs: 43%
ECHCO
  Visual Weed Control (%) - 21 DAA ECHCO Obs: 3%
ECHCG [6]
  Visual Weed Control (%) - 21 DAA ECHCG Obs: 0%
